According to patent US20240270762A1, “PENICILLIN-BINDING PROTEIN INHIBITORS” (priority 2021, published 2024):
In brackets after ≈: the same amount, converted by molar mass. Like-named read-outs stand apart in the source and are kept apart here.

Columns and labels:
[1] = tested on: B. humptydooensis ATCC BAA-2767; assay: microbe, parasite or virus in culture; type: cell-based; details: Burkholderia humptydooensis, ATCCBAA2767, read-out: Minimum inhibitory concentration (MIC), B. humptydooensis ATCC BAA-2767
[2] = tested on: P. aeruginosa ATCC 35151; assay: microbe, parasite or virus in culture; type: cell-based; details: Pseudomonas aeruginosa, ATCC35151, read-out: Minimum inhibitory concentration, P. aeruginosa ATCC 35151
[3] = target: A. baumannii PBP2 (Acinetobacter baumannii, UniProt D0C8Z9); assay: Bocillin-FL competition binding via gel filtration, A. baumannii PBP2
A. baumannii PBP2, sequence (D0C8Z9 whole entry): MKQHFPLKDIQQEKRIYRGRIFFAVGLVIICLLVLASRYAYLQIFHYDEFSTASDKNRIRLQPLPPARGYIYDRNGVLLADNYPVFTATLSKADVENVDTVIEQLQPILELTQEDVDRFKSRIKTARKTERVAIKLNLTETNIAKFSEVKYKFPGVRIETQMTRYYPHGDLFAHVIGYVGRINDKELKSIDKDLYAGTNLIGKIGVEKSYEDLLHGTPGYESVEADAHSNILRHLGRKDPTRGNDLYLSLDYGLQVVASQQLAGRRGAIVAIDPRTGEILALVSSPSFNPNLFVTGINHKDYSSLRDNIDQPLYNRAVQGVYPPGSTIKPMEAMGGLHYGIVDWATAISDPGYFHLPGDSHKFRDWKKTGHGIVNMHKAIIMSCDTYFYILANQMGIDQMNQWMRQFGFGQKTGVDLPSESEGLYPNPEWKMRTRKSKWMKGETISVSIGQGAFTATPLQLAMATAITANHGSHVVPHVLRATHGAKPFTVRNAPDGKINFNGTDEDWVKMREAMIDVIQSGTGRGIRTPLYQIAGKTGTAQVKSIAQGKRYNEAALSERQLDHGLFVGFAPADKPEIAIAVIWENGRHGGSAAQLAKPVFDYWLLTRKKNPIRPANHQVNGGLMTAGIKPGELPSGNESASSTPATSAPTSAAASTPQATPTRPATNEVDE
Method: (§1) Affinity to A. baumannii PBP1a and PBP2 was assessed a competitive equilibrium binding assay using Bocillin-FL as the reporter molecule. Enzyme was pre-incubated with increasing concentrations of inhibitors, prior to addition of Bocillin and further incubation for 15 minutes. PBP bound with Bocillin-FL was separated by gel filtration using 96-well Zeba Spin size exclusion plates, and the fluorescence measured. The inhibitor affinity (reported as the EC50) was determined by plotting the fraction of PBP bound with Bocillin-FL at each inhibitor concentration against the inhibitor concentration, and fitting the data to the following equation:
(§2) [formula] • where y is the fraction bound at a given inhibitor concentration, ymin is the fraction bound when the enzyme is completely inactivated, ymax is the maximum (uninhibited) fraction bound, n is the Hill coefficient, and x is the inhibitor concentration.

[4] = tested on: P. aeruginosa CDC-0054; assay: microbe, parasite or virus in culture; type: cell-based; details: Pseudomonas aeruginosa, CDC0054, read-out: Minimum inhibitory concentration, P. aeruginosa CDC-0054
[5] = tested on: P. aeruginosa (ΔmexAB-oprM); assay: Broth microdilution MIC in iron-depleted CAMHB (IDM); type: cell-based; details: Pseudomonas aeruginosa, read-out: Minimum inhibitory concentration, P. aeruginosa ΔmexAB-oprM
[6] = tested on: P. aeruginosa CDC-0095; assay: microbe, parasite or virus in culture; type: cell-based; details: Pseudomonas aeruginosa, CDC0095, read-out: Minimum inhibitory concentration, P. aeruginosa CDC-0095
[7] = tested on: B. thailandensis ATCC 700388; assay: microbe, parasite or virus in culture; type: cell-based; details: Burkholderia thailandensis, ATCC700388, read-out: Minimum inhibitory concentration (MIC), B. thailandensis ATCC 700388
[8] = tested on: P. aeruginosa CDC-0110; assay: microbe, parasite or virus in culture; type: cell-based; details: Pseudomonas aeruginosa, CDC0110, read-out: Minimum inhibitory concentration, P. aeruginosa CDC-0110
[9] = tested on: P. aeruginosa CDC-0090; assay: microbe, parasite or virus in culture; type: cell-based; details: Pseudomonas aeruginosa, CDC0090, read-out: Minimum inhibitory concentration, P. aeruginosa CDC-0090
[10] = target: T1, A. baumannii PBP1a (Acinetobacter baumannii, UniProt A0ABX6CK30); assay: Bocillin-FL competition binding via gel filtration, A. baumannii PBP1a; details: competition binding assay using Bocillin-FL via gel filtration; read-out: A. baumannii PBP1a Potency
T1 sequence (A0ABX6CK30 1-851): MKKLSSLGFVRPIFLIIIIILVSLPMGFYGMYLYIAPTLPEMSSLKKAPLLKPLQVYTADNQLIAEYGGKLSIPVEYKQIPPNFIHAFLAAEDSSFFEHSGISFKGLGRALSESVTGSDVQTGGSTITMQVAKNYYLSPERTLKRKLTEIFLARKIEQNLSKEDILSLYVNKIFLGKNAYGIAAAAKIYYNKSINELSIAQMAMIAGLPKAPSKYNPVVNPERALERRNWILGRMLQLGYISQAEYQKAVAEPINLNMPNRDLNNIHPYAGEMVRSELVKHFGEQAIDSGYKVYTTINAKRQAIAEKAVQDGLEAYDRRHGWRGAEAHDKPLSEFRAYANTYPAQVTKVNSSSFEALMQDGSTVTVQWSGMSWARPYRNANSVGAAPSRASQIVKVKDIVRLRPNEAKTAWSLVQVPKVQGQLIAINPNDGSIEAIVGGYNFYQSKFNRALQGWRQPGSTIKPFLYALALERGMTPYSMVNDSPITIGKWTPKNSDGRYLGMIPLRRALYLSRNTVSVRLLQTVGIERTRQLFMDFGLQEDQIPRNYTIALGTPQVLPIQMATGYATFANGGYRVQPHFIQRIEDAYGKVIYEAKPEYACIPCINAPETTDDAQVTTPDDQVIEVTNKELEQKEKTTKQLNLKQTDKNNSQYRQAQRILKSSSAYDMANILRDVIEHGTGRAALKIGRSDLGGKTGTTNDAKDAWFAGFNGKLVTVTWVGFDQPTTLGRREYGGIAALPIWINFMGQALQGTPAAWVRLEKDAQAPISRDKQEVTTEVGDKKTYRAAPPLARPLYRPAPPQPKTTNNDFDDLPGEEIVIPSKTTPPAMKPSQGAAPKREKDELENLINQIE
Method: as §1, §2

[11] = tested on: P. aeruginosa ATCC 27853; assay: microbe, parasite or virus in culture; type: cell-based; details: Pseudomonas aeruginosa, ATCC27853, read-out: Minimum inhibitory concentration, P. aeruginosa ATCC 27853
[12] = tested on: B. pseudomallei Bp82; assay: microbe, parasite or virus in culture; type: cell-based; details: Burkholderia pseudomallei, BP82, read-out: Minimum inhibitory concentration, B. pseudomallei Bp82
[13] = tested on: A. baumannii CDC-0033; assay: microbe, parasite or virus in culture; type: cell-based; details: Acinetobacter baumannii, CDC0033, read-out: Minimum inhibitory concentration (MIC), A. baumannii CDC-0033
[14] = target: T2, PBP3 from Pseudomonas aeruginosa (PAO1) (Pseudomonas aeruginosa, UniProt G3XD46); assay: Bocillin-FL fluorescence polarization competition binding, P. aeruginosa PBP3; details: Binding affinity to P. aeruginosa PBP3; fluorescence polarization competition binding assay using Bocillin-FL; read-out: P. aeruginosa PBP3 Potency
T2 construct: made in house
T2 sequence (G3XD46 whole entry): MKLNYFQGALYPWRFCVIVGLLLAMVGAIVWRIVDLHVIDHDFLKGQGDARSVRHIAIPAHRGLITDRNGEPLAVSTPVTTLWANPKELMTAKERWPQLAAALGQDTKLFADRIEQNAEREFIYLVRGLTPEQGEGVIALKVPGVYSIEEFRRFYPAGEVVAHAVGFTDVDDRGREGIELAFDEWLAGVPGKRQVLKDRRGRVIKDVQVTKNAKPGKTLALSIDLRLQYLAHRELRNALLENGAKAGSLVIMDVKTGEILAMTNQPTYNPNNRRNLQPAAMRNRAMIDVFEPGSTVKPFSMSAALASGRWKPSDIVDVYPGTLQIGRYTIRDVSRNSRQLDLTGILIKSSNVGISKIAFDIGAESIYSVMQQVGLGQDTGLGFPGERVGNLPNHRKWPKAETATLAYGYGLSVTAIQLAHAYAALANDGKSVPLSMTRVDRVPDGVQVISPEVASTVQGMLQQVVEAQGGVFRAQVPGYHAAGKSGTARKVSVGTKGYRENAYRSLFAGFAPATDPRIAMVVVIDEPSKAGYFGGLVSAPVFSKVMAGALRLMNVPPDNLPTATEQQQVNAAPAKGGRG
Method in brief: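 Purified PBPs pre-incubated with inhibitor (E. coli PBP3 1.5 μM, 30 min; P. aeruginosa PBP3 0.75 μM, A. baumannii PBP1a 1 μM and PBP3 0.2 μM, 15 min), then Bocillin-FL 0.1 μM (0.05 μM for PBP1a) added; FP read up to 60 min. EC50 = concentration halving bound Bocillin-FL.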

[15] = tested on: A. baumannii CDC-0045; assay: microbe, parasite or virus in culture; type: cell-based; details: Acinetobacter baumannii, CDC0045, read-out: Minimum inhibitory concentration (MIC), A. baumannii CDC-0045
[16] = tested on: A. baumannii CDC-0036; assay: microbe, parasite or virus in culture; type: cell-based; details: Acinetobacter baumannii, CDC0036, read-out: Minimum inhibitory concentration (MIC), A. baumannii CDC-0036
[17] = tested on: A. baumannii 1258916; assay: microbe, parasite or virus in culture; type: cell-based, Acinetobacter baumannii; details: Acinetobacter baumannii, 1258916, read-out: Minimum inhibitory concentration (MIC), A. baumannii 1258916
[18] = tested on: A. baumannii ATCC 19606; assay: microbe, parasite or virus in culture; type: cell-based; details: Acinetobacter baumannii, ATCC19606, read-out: Minimum inhibitory concentration (MIC), A. baumannii ATCC 19606
[19] = tested on: A. baumannii ATCC 17978; assay: microbe, parasite or virus in culture; type: cell-based; details: Acinetobacter baumannii, ATCC17978, read-out: Minimum inhibitory concentration (MIC), A. baumannii ATCC 17978

Structure (SMILES)	MIC [1] [µg/mL]	MIC [2] [µg/mL]	EC50 [3] [µM]	MIC [4] [µg/mL]	MIC [5] [µg/mL]	MIC [6] [µg/mL]	MIC [7] [µg/mL]	MIC [8] [µg/mL]	MIC [9] [µg/mL]	EC50 [10] [µM]	MIC [11] [µg/mL]	MIC ([5]; iron-depleted CAMHB (IDM), […]) [µg/mL]	MIC [12] [µg/mL]	MIC [13] [µg/mL]	IC50 [14] [µM]	MIC [15] [µg/mL]	MIC [16] [µg/mL]	MIC [17] [µg/mL]	MIC [18] [µg/mL]	MIC [19] [µg/mL]
O=C(O)c1c(F)ccc2c1OB(O)[C@@H](NC(=O)[C@H](NC(=O)N1CCN(C3CCN(S(=O)(=O)c4ccc5[nH]nnc5c4)CC3)C1=O)c1cc(F)c(O)c(O)c1Cl)C2 (single isomer, unassigned) [Example 621]	< 1	< 1	< 10	< 1	< 1	< 1	2 to 4 (≈ 2.44 to 4.88 µM)	< 1	< 1	< 10	< 1									
NCc1cccc(C(=O)N2CCC(N3CCN(C(=O)N[C@@H](C(=O)N[C@H]4Cc5ccc(F)c(C(=O)O)c5OB4O)c4cc(F)c(O)c(O)c4Cl)C3=O)CC2)c1 [Example 603, (R)-3-((R)-2-(3-(1-(3-(aminomethyl)benzoyl)piperidin-4-yl)-2-oxoimidazolidine-1-carboxamido)-2-(2-chloro-5-fluoro-3,4-dihydroxyphenyl)acetamido)-7-fluoro-2-hydroxy-3,4-dihydro-2H-benzo[e][1,2]oxaborinine-8-carboxylic acid]	< 1	< 1	10 to 50	< 1		2 to 4 (≈ 2.59 to 5.19 µM)	< 1	< 1	2 to 4 (≈ 2.59 to 5.19 µM)	10 to 50	< 1	< 1								
O=C(O)c1c(F)ccc2c1OB(O)[C@@H](NC(=O)[C@H](NC(=O)N1CCN(C3CCN(C(=O)Nc4cc(O)c(O)c(Cl)c4)CC3)C1=O)c1ccc(P(=O)(O)O)cc1)C2 (single isomer, unassigned) [Example 501]	< 1		< 10				< 1			< 10			2 to 4 (≈ 2.44 to 4.88 µM)	2 to 4 (≈ 2.44 to 4.88 µM)	< 10	< 1	2 to 4 (≈ 2.44 to 4.88 µM)	2 to 4 (≈ 2.44 to 4.88 µM)	< 1	< 1
NCc1ccc(C(=O)N2CCC(N3CCN(C(=O)NC(C(=O)N[C@H]4Cc5ccc(F)c(C(=O)O)c5OB4O)c4cc(F)c(O)c(O)c4Cl)C3=O)CC2)cc1 (single isomer, unassigned) [Example 604]	< 1	< 1	10 to 50	< 1	< 1	2 to 4 (≈ 2.59 to 5.19 µM)	< 1	< 1	< 1	10 to 50	< 1									
NCc1ccc(C(=O)N2CCC(N3CCN(C(=O)NC(C(=O)N[C@H]4Cc5ccc(F)c(C(=O)O)c5OB4O)c4cc(F)c(O)c(O)c4Cl)C3=O)CC2)cc1O (single isomer, unassigned) [Example 616]	< 1	< 1	10 to 50	< 1	< 1	< 1	2 to 4 (≈ 2.54 to 5.08 µM)	< 1	< 1	10 to 50	< 1									
O=C(O)c1c(F)ccc2c1OB(O)[C@@H](NC(=O)C(NC(=O)N1CCN(C3CCN(Cc4ccc(O)cc4)CC3)C1=O)c1cc(F)c(O)c(O)c1Cl)C2 (single isomer, unassigned) [Example 609]	< 1		10 to 50				< 1			< 10			< 1							
O=C(O)c1c(F)ccc2c1OB(O)[C@@H](NC(=O)[C@H](NC(=O)N1CCN(C3CCN(C(=O)c4cc(O)cc(O)c4)CC3)C1=O)c1cc(F)c(O)c(O)c1F)C2 [Example 623, (R)-3-((R)-2-(2,5-difluoro-3,4-dihydroxyphenyl)-2-(3-(1-(3,5-dihydroxybenzoyl)piperidin-4-yl)-2-oxoimidazolidine-1-carboxamido)acetamido)-7-fluoro-2-hydroxy-3,4-dihydro-2H-benzo[e][1,2]oxaborinine-8-carboxylic acid]		< 1		< 1		< 1	< 1	< 1	< 1		< 1	< 1								
O=C(O)c1c(F)ccc2c1OB(O)[C@@H](NC(=O)[C@H](NC(=O)N1CCN(C3CCN(S(=O)(=O)c4ccc5[nH]nnc5c4)CC3)C1=O)c1cc(F)c(O)c(O)c1F)C2 [Example 622, (R)-3-((R)-2-(3-(1-((1H-benzo[d][1,2,3]triazol-5-yl)sulfonyl)piperidin-4-yl)-2-oxoimidazolidine-1-carboxamido)-2-(2,5-difluoro-3,4-dihydroxyphenyl)acetamido)-7-fluoro-2-hydroxy-3,4-dihydro-2H-benzo[e][1,2]oxaborinine-8-carboxylic acid]		< 1		< 1		2 to 4 (≈ 2.49 to 4.98 µM)	2 to 4 (≈ 2.49 to 4.98 µM)	< 1	< 1		2 to 4 (≈ 2.49 to 4.98 µM)	< 1								
